Our source for the IC50 values is patent US8957074B2 (Novartis AG, priority 2010, dated 2015).

For test [1], the system named is phosphorylation of pRb at the Ser780 site in JeKo-1 mantle cell lymphoma cells. Description: CDK4 cellular assay: ELISA of pRb phosphorylation at Ser780 in JeKo-1 cells. The class given is cell-based. The source says:
Cell-based assay measuring phosphorylation levels of pRb at the Ser780 site using an enzyme-linked immunosorbent assay (ELISA) method (Table 6). JeKo-1, a mantle-cell lymphoma cell line, was selected for use in this assay due to its known translocation and subsequent overexpression of cyclin D1. [Ref: Amin, H. M.; McDonnell, T. J.; Medeiros, L. J.; Rassidakis, G. Z.; Leventaki, V.; O'Connor, S. L.; Keating, M. J.; Lai, R. Characterization of 4 mantle cell lymphoma cell lines—Establishment of an in vitro study model. Arch. Pathol. Lab.
Cells were allowed to adhere overnight. […] 10 μL of the dilution were then transferred to the cell culture plate, resulting in a final concentration range of 10 μM to 2 nM. The incubation was carried out at 37° C. with 5% CO2. All compounds were tested in triplicates at each concentration. […] The plates were placed at 4° C. with vigorous shaking for 5 min to lyse the cells. The resulting lysates contained approximately 1 μg/μL of protein.
Plates were incubated overnight at 4° C. with rocking. […] After shaking for 10 minutes, the Superblock solution was replaced with fresh Superblock and plates were incubated on a shaker for an additional 50 min. After blocking, 30 μL of JeKo-1 cell lysate, containing approximately 10 μg total protein, were added to wells in triplicate. […] For all incubation steps, plates were covered with Uniseal plate sealers. […] Next, 50 μL of a 1:2500 dilution of donkey-anti-rabbit HRP (Promega catalog no. W401B) in PBS/10% Superblock were added, and plates were incubated for 30 min at room temperature on a shaker. Plates were again washed as described above. […] After incubation, 50 μL 2 M sulfuric acid were added to plates to top the reaction, and absorbance was determined on a SpectraMax (Molecular Devices, Sunnydale, Calif.) within 15 minutes at 450 nm. All washes were performed using a Bio-Tek plate washer.
The Total Rb ELISA kit (Invitrogen catalog no. KH00011) was used to determine the levels of total pRb. This kit uses wells precoated with a proprietary total pRb antibody for capture. All reagents listed, with the exception of cell lysate, were included in the kit. The nature of the antibodies used for capture and detection was labeled as proprietary and not disclosed. 10 μg of cell lysate was loaded into the wells and volume adjusted to 50 μL with standard dilution buffer. Plates were sealed with film included in the kit and incubated for 2 h at room temperature on a shaker. Plates are then manually washed three times with 250 μL wash buffer. 50 μL of proprietary primary antibody (pre-conjugated to biotin) was added to wells and incubated for 1 h at room temperature on a shaker. Then plates were again washed as noted above. The secondary antibody (HRP pre-conjugated to Streptavidin) was diluted 1:100 in Streptavidin-HRP diluent buffer and 50 μL was added to each well. Plates were then incubated for 30 min. Afterwards, plates were washed four times with buffer as outlined above. Finally, 50 μL stabilized Chromogen was added per well and plates were incubated for 15 min, at which point 50 μL of stop solution was added. Plates were then read on a Spectramax at 450 nm.
The total pRb levels were then used to adjust the p-pRb % inhibition values to account for any loss of signal due to the absence of the pRb protein itself, and the IC50 values obtained from the adjusted % inhibitions represent normalized cellular p-pRb IC50.

A further test addresses CDK4/cyclin D1 (Homo sapiens (Human), UniProt P11802). Kind of test: CDK4/cyclin D1 enzymatic activity assay (TR-FRET, phosphorylation of pRb at Ser780). It counts as biochemical. Conditions: 0.3 nM CDK4/cyclin D1, 150 nM biotin-pRb (773-924), 3 μM ATP, 60 min at 22° C.; read-out: Biochemical CDK4 enzyme IC50. On the procedure:
CDK4/Cyclin D1 Enzymatic Activity Assay
An assay for monitoring CDK4/cyclin D1-catalyzed phosphorylation of pRb at the Ser780 site was performed using TR-FRET in a 384-well format, and was used for IC50 determination and kinetic analysis. […] 3 μM ATP was added last to initiate the reaction. The reaction was quenched with 10 μL of 240 mM EDTA-Na (pH 8.0) after 60 min incubation at 22° C.
Human CDK4/cyclin D1 was expressed in Sf21 cells via baculovirus infection.
A general note: In TR-FRET formats the signal depends on donor and acceptor labels being close together.

In the next test the target is CDK1/cyclin B (Homo sapiens (Human), UniProt P06493). Description: CDK1/cyclin B enzymatic activity assay (IMAP-FP). It counts as biochemical. The text has this: CDK1/Cyclin B Enzymatic Activity Assay
A 384-well microtiter IMAP-FP™ (Molecular Devices Trade Mark Technology) endpoint assay was used for CDK1/cyclin B kinase activity measurements. The same assay was used for IC50 determination of small molecule inhibitors.

Setting [2] is: Homo sapiens, JeKo-1, JeKo-1 cells, p-pRb % inhibition adjusted with total pRb levels, read-out: Normalized cellular ppRb inhibition IC50.
The mark [3] stands for this setting: Homo sapiens, JeKo-1, JeKo-1 cells, p-pRb Ser780 ELISA, non-normalized, read-out: Cellular ppRb inhibition IC50.
Setting [4] is: […] CDK1/cyclin B, 100 nM Tamra Histone-H1 peptide, 20 μM ATP, 120 min at room temperature, read-out: Biochemical CDK1 enzyme IC50.
[5] abbreviates: Homo sapiens, JeKo-1 cells, p-pRb % inhibition adjusted with total pRb levels, read-out: Normalized cellular ppRb inhibition IC50.
Setting [6] is: Homo sapiens, JeKo-1 cells, p-pRb Ser780 ELISA, non-normalized, read-out: Cellular ppRb inhibition IC50.
Setting [7] is: 0.25 nM CDK1/cyclin B, 100 nM Tamra Histone-H1 peptide, 20 μM ATP, 120 min at room temperature, read-out: Biochemical CDK1 enzyme IC50.

Where two headings read alike, the source gives them in different places.

Sequence of CDK4/cyclin D1 (P11802 whole entry): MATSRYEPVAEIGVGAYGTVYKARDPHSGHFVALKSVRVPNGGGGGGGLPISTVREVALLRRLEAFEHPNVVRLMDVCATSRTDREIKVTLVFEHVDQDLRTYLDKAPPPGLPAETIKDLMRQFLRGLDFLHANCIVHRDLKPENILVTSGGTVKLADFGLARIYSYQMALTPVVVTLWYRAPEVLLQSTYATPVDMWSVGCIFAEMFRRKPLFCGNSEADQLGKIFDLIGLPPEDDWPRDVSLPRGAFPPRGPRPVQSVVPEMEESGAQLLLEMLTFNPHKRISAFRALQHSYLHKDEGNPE
Sequence of CDK4/cyclin D1 (P24385 whole entry partner): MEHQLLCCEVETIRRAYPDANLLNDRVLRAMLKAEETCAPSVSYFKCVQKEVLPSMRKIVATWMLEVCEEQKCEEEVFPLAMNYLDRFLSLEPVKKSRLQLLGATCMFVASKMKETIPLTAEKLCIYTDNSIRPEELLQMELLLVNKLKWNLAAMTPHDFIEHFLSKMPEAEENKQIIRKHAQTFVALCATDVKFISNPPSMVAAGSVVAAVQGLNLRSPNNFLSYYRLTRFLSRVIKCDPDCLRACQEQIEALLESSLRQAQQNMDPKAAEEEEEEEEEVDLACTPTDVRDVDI
Sequence of CDK1/cyclin B (P06493 whole entry, species assumed): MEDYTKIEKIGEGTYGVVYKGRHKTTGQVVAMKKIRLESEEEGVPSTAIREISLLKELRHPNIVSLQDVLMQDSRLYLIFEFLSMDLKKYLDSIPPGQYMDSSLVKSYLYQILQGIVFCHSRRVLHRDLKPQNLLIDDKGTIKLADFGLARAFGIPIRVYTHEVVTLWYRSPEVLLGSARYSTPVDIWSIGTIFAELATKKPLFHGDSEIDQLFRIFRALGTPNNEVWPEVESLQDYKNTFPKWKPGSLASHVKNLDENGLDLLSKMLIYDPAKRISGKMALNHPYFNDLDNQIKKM
Sequence of CDK1/cyclin B (P14635 whole entry partner, species assumed): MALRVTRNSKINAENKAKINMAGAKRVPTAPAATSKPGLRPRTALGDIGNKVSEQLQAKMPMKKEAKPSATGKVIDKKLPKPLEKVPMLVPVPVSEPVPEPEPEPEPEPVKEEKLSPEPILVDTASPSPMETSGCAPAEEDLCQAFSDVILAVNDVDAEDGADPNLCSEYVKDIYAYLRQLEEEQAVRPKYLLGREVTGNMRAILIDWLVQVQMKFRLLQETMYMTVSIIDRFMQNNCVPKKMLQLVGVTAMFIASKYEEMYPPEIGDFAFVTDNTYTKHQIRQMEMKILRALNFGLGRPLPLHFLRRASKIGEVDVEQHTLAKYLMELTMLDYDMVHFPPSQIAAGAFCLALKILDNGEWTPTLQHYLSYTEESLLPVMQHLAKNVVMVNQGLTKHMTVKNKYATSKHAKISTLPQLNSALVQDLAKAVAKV

As usually defined, the IC50 is the point on the concentration scale where inhibition reaches its midpoint. In the case of `CN(C)C(=O)c1cc2cnc(Nc3ccc(N4CC5(CC6CCC(C5)N6C)OC4=O)cn3)nc2n1C1CCCC1` [Example 102, 7-cyclopentyl-N,N-dimethyl-2-(5-((1R,3r,5S)-8-methyl-2′-oxo-8-azaspiro[bicyclo[3.2.1]octane-3,5′-oxazolidine]-3′-yl)pyridin-2-ylamino)-7H-pyrrolo[2,3-d]pyrimidine-6-carboxamide], the IC50 in test [1] (setting [2]) was 71 nM; in test [1] (setting [3]) it was 39 nM; at CDK4/cyclin D1 it was 18 nM; at CDK1/cyclin B (setting [4]), above 15 µM.

As to `CN1CCCC2(C1)CN(c1ccc(Nc3ncc4cc(C(=O)N(C)C)n(C5CCCC5)c4n3)nc1)C(=O)O2` (stereo not shown) [Example 108, 7-cyclopentyl-N,N-dimethyl-2-(5-(7-methyl-2-oxo-1-oxa-3,7-diazaspiro[4.5]decan-3-yl)pyridin-2-ylamino)-7H-pyrrolo[2,3-d]pyrimidine-6-carboxamide], the IC50 was 69 nM in test [1] (setting [2]), 61 nM in test [1] (setting [3]), 13 nM on CDK4/cyclin D1 and above 15 µM at CDK1/cyclin B (setting [4]).

On to `CN(C)C(=O)c1cc2cnc(Nc3ccc(C(=O)N4CCN5CCCC5C4)cn3)nc2n1C1CCCC1` (stereo not shown) [Example 20, 7-Cyclopentyl-2-[5-(hexahydro-pyrrolo[1,2-a]pyrazine-2-carbonyl)-pyridin-2-ylamino]-7H-pyrrolo[2,3-d]pyrimidine-6-carboxylic acid dimethylamide], for which the IC50 in test [1] (setting [2]) is 452 nM; in test [1] (setting [3]) it was 267 nM; at CDK4/cyclin D1, 64 nM; on CDK1/cyclin B (setting [4]), above 15 µM.

Take `CN(C)C(=O)c1cc2cnc(Nc3ccc(N4CCN5CCCC5C4)cn3)nc2n1C1CCCC1` (stereo not shown) [Example 116, 7-cyclopentyl-2-(5-(hexahydropyrrolo[1,2-a]pyrazin-2(1H)-yl)pyridin-2-ylamino)-N,N-dimethyl-7H-pyrrolo[2,3-d]pyrimidine-6-carboxamide]: the 50% inhibitory concentration (IC50) in test [1] (Homo sapiens, JeKo-1, read-out: Cellular ppRb inhibition IC50) was 604 nM; in test [1] (Homo sapiens, JeKo-1, read-out: Normalized cellular ppRb inhibition IC50) it was 605 nM; on CDK4/cyclin D1 it was 110 nM; on CDK1/cyclin B (setting [4]), above 15 µM.

On to `CN(C)C(=O)c1cc2cnc(Nc3ccc(C(=O)N4CC5CC4CN5)cn3)nc2n1C1CCCCC1` (stereo not shown) [Example 67, 7-Cyclohexyl-2-[5-(2,5-diaza-bicyclo[2.2.1]heptane-2-carbonyl)-pyridin-2-ylamino]-7H-pyrrolo[2,3-d]pyrimidine-6-carboxylic acid dimethylamide], for which the IC50 worked out at 54 nM in test [1] (setting [5]), 51 nM in test [1] (setting [6]), 3 nM at CDK4/cyclin D1 and 10.4 µM at CDK1/cyclin B (setting [4]).

For the molecule `CN(C)C(=O)c1cc2cnc(Nc3ccc(N4C(=O)CN5CCC4CC5)cn3)nc2n1C1CCCC1` [Example 96, 7-cyclopentyl-N,N-dimethyl-2-(5-(3-oxo-1,4-diazabicyclo[3.2.2]nonan-4-yl)pyridin-2-ylamino)-7H-pyrrolo[2,3-d]pyrimidine-6-carboxamide], the IC50 was 73 to 107 nM in test [1] (JeKo-1 cells, p-pRb % inhibition adjusted with total pRb levels, read-out: Normalized cellular ppRb inhibition IC50); 31 to 39 nM in test [1] (JeKo-1 cells, p-pRb Ser780 ELISA, non-normalized, read-out: Cellular ppRb inhibition IC50); 15 to 28 nM on CDK4/cyclin D1; 10.8 µM at CDK1/cyclin B (setting [4]).

Regarding `CN(C)C(=O)c1cc2cnc(Nc3ccc(N4CCN5CCCC5C4=O)cn3)nc2n1C1CCCC1` (stereo not shown) [Example 115], the IC50 in test [1] (setting [2]) is 369 to 407 nM; in test [1] (setting [3]) it was 135 to 306 nM; on CDK4/cyclin D1, 20 to 51 nM; at CDK1/cyclin B (setting [7]), above 15 µM.

On to `CN(C)C(=O)c1cc2cnc(Nc3ccc(N4C[C@@H]5CC[C@H](CC4=O)N5C)cn3)nc2n1C1CCCC1` [Example 141, 7-Cyclopentyl-2-[5-((1S,6R)-9-methyl-4-oxo-3,9-diaza-bicyclo[4.2.1]non-3-yl)-pyridin-2-ylamino]-7H-pyrrolo[2,3-d]pyrimidine-6-carboxylic acid dimethylamide], for which the IC50 in test [1] (setting [2]) is 34 nM; in test [1] (setting [3]), 24 nM; at CDK4/cyclin D1, 45 nM; at CDK1/cyclin B (setting [4]), above 15 µM.

Take `CN(C)C(=O)c1cc2cnc(Nc3ccc(C(=O)N4CC5CC[C@@H](C4)N5)cn3)nc2n1[C@H]1C[C@@H]2CC[C@H]1C2` [Example 77, 7-(1S,2S,4R)-Bicyclo[2.2.1]hept-2-yl-2-[5-(3,8-diaza-bicyclo[3.2.1]octane-3-carbonyl)-pyridin-2-ylamino]-7H-pyrrolo[2,3-d]pyrimidine-6-carboxylic acid dimethylamide]: the IC50 in test [1] (setting [2]) was 225 nM; in test [1] (setting [3]), 172 nM; on CDK4/cyclin D1 it was 27 nM; on CDK1/cyclin B it was above 15 µM.

Consider `CN(C)C(=O)c1cc2cnc(Nc3ccc(N4CC5(CC6CCC(C5)N6)OC4=O)cn3)nc2n1C1CCCCC1` [Example 94, 7-cyclohexyl-N,N-dimethyl-2-(5-((1R,3r,5S)-2′-oxo-8-azaspiro[bicyclo[3.2.1]octane-3,5′-oxazolidine]-3′-yl)pyridin-2-ylamino)-7H-pyrrolo[2,3-d]pyrimidine-6-carboxamide], for which the half-maximal inhibitory concentration (IC50) is 34 to 206 nM in test [1] (setting [2]), 25 to 154 nM in test [1] (setting [3]), 41 to 44 nM at CDK4/cyclin D1 and above 15 µM at CDK1/cyclin B (setting [4]).

Turning to `CN(C)C(=O)c1cc2cnc(Nc3ccc(N4C[C@H]5CNC[C@H]5C4=O)cn3)nc2n1C1CCCCCC1` [Example 83, 7-cycloheptyl-N,N-dimethyl-2-(5-((3aR,6aS)-1-oxohexahydropyrrolo[3,4-c]pyrrol-2(1H)-yl)pyridin-2-ylamino)-7H-pyrrolo[2,3-d]pyrimidine-6-carboxamide], the IC50 stood at 9 nM in test [1] (setting [5]), 5 nM in test [1] (setting [6]), 3 nM at CDK4/cyclin D1 and 5.32 µM at CDK1/cyclin B (setting [4]).

Take `CN(C)C(=O)c1cc2cnc(Nc3ccc(C(=O)N4CC5CC4CN5)cn3)nc2n1C1CCCCCC1` (stereo not shown) [Example 3, 7-Cycloheptyl-2-[5-(2,5-diaza-bicyclo[2.2.1]heptane-2-carbonyl)-pyridin-2-ylamino]-7H-pyrrolo[2,3-d]pyrimidine-6-carboxylic acid dimethylamide]: the IC50 in test [1] (setting [5]) was 29 to 33 nM; in test [1] (setting [6]) it was 19 to 26 nM; on CDK4/cyclin D1, 1 nM; on CDK1/cyclin B (setting [7]) it was 4.2 to 5.14 µM.

As for `CC(=O)N1C2CCC1CN(C(=O)c1ccc(Nc3ncc4cc(C(=O)N(C)C)n(C5CCCC5)c4n3)nc1)C2` [Example 27, 2-(5-(8-acetyl-3,8-diazabicyclo[3.2.1]octane-3-carbonyl)pyridin-2-ylamino)-7-cyclopentyl-N,N-dimethyl-7H-pyrrolo[2,3-d]pyrimidine-6-carboxamide], the IC50 in test [1] (setting [5]) is 201 nM; in test [1] (setting [6]), 194 nM; on CDK4/cyclin D1, 46 nM; on CDK1/cyclin B (setting [4]), above 15 µM.
